In patent US8906944B2, “Compounds as tyrosine kinase modulators” (Allergan, Inc., priority 2009, dated 2014):

Experiments:
[1] = target: T1, human VEGF receptor (VEGFR-2) (Homo sapiens, UniProt P35968); test: VEGFR2 kinase assay; type: biochemical; settings: His-VEGFR-2 cytoplasmic domain, 3.6 μM ATP; Table IV, amide or urea linker; read-out: VEGFR2 Enzyme IC50
T1 construct: The cytoplasmic domain of the human VEGF receptor (VEGFR-2) was expressed; His; made in house; host or cells: insect cells (baculovirus)
T1 sequence (P35968 786-1356 limits assumed): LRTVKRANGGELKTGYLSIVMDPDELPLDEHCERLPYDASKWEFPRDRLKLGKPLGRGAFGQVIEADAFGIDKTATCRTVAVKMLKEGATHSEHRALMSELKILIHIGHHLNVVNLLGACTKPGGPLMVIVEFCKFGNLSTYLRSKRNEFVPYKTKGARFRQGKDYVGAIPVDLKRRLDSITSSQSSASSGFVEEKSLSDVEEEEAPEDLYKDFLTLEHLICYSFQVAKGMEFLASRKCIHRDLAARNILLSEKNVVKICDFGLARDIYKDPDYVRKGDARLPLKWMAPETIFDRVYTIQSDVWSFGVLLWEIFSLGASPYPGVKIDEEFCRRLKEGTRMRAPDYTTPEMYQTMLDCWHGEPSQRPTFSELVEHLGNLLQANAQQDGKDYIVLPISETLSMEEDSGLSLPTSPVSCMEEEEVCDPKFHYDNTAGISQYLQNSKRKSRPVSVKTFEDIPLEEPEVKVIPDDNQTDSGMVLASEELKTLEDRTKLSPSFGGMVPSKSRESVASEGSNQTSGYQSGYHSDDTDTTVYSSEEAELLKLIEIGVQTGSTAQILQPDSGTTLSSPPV
Protocol: The cytoplasmic domain of the human VEGF receptor (VEGFR-2) was expressed as a Histidine-tagged fusion protein following infection of insect cells using an H is engineered baculovirus. […] Kinase assays were performed in 96 well microtiter plates that were coated overnight with 30 µg of poly-Glu-Tyr (4:1) in 10 mM Phosphate Buffered Saline (PBS), pH 7.2-7.4. The plates were incubated with 1% BSA and then washed four times with PBS prior to starting the reaction. Reactions were carried out in 120 µL reaction volumes containing 3.6 µM ATP in kinase buffer (50 mM Hepes buffer pH 7.4, 20 mM MgCl2, 0.1 mM MnCl2 and 0.2 mM Na3 VO4). […] Reactions were initiated by the addition 0.5 ng of purified protein. Following a ten minute incubation at 25 degree. […] IC50 values for compound inhibition were calculated directly from graphs of optical density (arbitrary units) versus compound concentration following subtraction of blank values.

VEGFR1 = VEGFR1 (Homo sapiens, UniProt P17948); test: VEGFR1 enzyme assay; type: biochemical; settings: Table IV, amide or urea linker
Chain of VEGFR1 (P17948 27-1338, species assumed): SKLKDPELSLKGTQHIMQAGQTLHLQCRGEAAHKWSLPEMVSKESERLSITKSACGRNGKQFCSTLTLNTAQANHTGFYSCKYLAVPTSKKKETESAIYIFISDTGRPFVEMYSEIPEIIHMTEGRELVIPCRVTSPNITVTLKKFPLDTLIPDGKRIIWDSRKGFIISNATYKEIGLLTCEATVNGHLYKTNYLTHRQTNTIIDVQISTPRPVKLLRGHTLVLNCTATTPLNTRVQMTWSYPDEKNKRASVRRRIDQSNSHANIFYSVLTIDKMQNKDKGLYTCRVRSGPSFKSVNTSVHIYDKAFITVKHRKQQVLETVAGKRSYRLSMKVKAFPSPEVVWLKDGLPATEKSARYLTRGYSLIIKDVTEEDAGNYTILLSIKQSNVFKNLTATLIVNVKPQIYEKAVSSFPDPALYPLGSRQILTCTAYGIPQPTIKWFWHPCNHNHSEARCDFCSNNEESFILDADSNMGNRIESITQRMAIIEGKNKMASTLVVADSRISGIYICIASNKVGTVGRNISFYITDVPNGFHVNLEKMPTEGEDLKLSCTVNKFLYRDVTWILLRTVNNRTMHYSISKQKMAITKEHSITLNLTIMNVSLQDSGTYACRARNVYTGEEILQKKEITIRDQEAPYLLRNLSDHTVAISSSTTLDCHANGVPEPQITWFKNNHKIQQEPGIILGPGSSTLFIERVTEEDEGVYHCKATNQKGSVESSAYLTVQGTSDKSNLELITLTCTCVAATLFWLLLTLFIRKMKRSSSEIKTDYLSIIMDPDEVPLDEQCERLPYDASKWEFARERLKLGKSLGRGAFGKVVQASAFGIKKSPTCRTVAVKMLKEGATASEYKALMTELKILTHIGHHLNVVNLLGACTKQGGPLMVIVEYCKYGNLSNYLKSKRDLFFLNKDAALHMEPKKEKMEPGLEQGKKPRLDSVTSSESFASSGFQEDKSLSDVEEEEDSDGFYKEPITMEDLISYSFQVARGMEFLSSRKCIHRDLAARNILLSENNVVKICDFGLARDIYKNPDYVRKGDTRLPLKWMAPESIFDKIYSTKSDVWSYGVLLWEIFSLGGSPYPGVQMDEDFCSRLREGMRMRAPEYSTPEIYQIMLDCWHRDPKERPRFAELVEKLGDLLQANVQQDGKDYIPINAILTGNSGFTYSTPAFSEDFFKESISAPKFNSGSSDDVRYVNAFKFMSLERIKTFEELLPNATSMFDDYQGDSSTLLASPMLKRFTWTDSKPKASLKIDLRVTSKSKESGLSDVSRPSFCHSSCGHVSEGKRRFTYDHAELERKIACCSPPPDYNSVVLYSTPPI

Row | IC50 [1] | IC50 (VEGFR1) | Structure (SMILES)
1 | 0.007 µM | – | Cc1cccc(NC(=O)Nc2ccc(Oc3ccnc(-c4cc(C(=O)OCC(CO)(CO)CO)c[nH]4)c3)cc2)c1 [Example 240, 3-hydroxy-2,2-bis(hydroxymethyl)propyl 5-{4-[4-({[(3-methylphenyl)amino]carbonyl}amino)phenoxy]pyridin-2-yl}-1H-pyrrole-3-carboxylate]
2 | 0.026 µM | 0.034 µM | Cc1ccoc1C(=O)Nc1cc(Oc2ccnc(-c3cc(C(=O)NCCCN4CCCC4)c[nH]3)c2)ccc1F [Example 192, 5-(4-{4-fluoro-3-[(3-methyl-2-furoyl)amino]phenoxy}pyridin-2-yl)-N-(3-pyrrolidin-1-ylpropyl)-1H-pyrrole-3-carboxamide]
3 | 0.018 µM | – | CCNC(=O)[C@H](CCC(=O)OC(C)(C)C)NC(=O)c1c[nH]c(-c2cc(Oc3cccc(NC(=O)c4occc4C)c3)ccn2)c1 [Example 265, tert-butyl 5-(ethylamino)-4-({[5-(4-{3-[(3-methyl-2-furoyl)amino]phenoxyl}pyridin-2-yl)-1H-pyrrol-3-yl]carbonyl}amino)-5-oxopentanoate]
4 | 0.015 µM | – | Cc1ccc(F)c(NC(=O)Nc2ccc(Oc3ccnc(-c4cc(C(=O)NCCCC(=O)NN)c[nH]4)c3)cc2)c1 [Example 177, 5-{4-[4-({[(2-fluoro-5-methylphenyl)amino]carbonyl}amino)phenoxy]pyridin-2-yl}-N-(4-hydrazino-4-oxobutyl)-1H-pyrrole-3-carboxamide]

The remaining lines, values behind:

Row | Structure (SMILES) | IC50 [1] | IC50 (VEGFR1)
5 | Cc1ccc(F)c(NC(=O)Nc2ccc(Oc3ccnc(-c4cc(C(=O)NCCCN5CCCC5)c[nH]4)c3)cc2F)c1 [Example 226, 5-{4-[3-fluoro-4-({[(2-fluoro-5-methylphenyl)amino]carbonyl}amino)phenoxy]pyridin-2-yl}-N-(3-pyrrolidin-1-ylpropyl)-1H-pyrrole-3-carboxamide] | 0.006 µM | 0.009 µM
6 | Cc1ccc(F)c(NC(=O)Nc2ccc(Oc3ccnc(-c4cc(C(=O)N5CCN(C(=O)OC(C)(C)C)CC5)c[nH]4)c3)cc2F)c1 [Example 224, tert-butyl 4-[(5-{4-[3-fluoro-4-({[(2-fluoro-5-methylphenyl)amino]carbonyl}amino)phenoxy]pyridin-2-yl}-1H-pyrrol-3-yl)carbonyl]piperazine-1-carboxylate] | 0.01 µM | 0.021 µM
7 | Cc1cccc(NC(=O)c2ccc(F)c(Oc3ccnc(-c4cc(C(=O)NCCC(=O)O)c[nH]4)c3)c2)c1 [Example 275, 3-[({5-[4-(2-fluoro-5-{[(3-methylphenyl)amino]carbonyl}phenoxy)pyridin-2-yl]-1H-pyrrol-3-yl}carbonyl)amino]propanoic acid] | 0.019 µM | –
8 | Cc1ccoc1C(=O)Nc1cccc(Oc2ccnc(-c3cc(C(=O)N[C@@H](CCC(=O)OC(C)(C)C)C(=O)O)c[nH]3)c2)c1 [Example 266, 5-tert-butoxy-2-({[5-(4-{3-[(3-methyl-2-furoyl)amino]phenoxy}pyridin-2-yl)-1H-pyrrol-3-yl]carbonyl}amino)-5-oxopentanoic acid] | 0.031 µM | –
9 | COC(=O)CCNC(=O)c1c[nH]c(-c2cc(Oc3cc(C(=O)Nc4cccc(C)c4)ccc3F)ccn2)c1 [Example 277, methyl 3-[({5-[4-(2-fluoro-5-{[(3-methylphenyl)amino]carbonyl}phenoxy)pyridin-2-yl]-1H-pyrrol-3-yl}carbonyl)amino]propanoate] | 0.013 µM | –
10 | Cc1ccc(F)c(NC(=O)Nc2ccc(Oc3ccnc(-c4cc(C(=O)NCCCN5CCC(C(=O)O)C5)c[nH]4)c3)cc2)c1 (centres unmarked) [Example 268, 1-(3-{[(5-{4-[4-({[(2-fluoro-5-methylphenyl)amino]carbonyl}amino)phenoxy]pyridin-2-yl}-1H-pyrrol-3-yl)carbonyl]amino}propyl)pyrrolidine-3-carboxylic acid] | 0.015 µM | –
11 | Cc1ccc(F)c(NC(=O)Nc2ccc(Oc3ccnc(-c4cc(C(=O)NCCCN5CCC(O)CC5)c[nH]4)c3)cc2)c1 [Example 272, 5-{4-[4-({[(2-fluoro-5-methylphenyl)amino]carbonyl}amino)phenoxy]pyridin-2-yl}-N-[3-(4-hydroxypiperidin-1-yl)propyl]-1H-pyrrole-3-carboxamide] | 0.019 µM | –
